Experimental findings from ChEMBL document CHEMBL1131377, “Novel 5-(3-aryl-2-propynyl)-5-(arylsulfonyl)thiazolidine-2,4-diones as antihyperglycemic agents” (1998) are described below.

Some results are limits rather than exact numbers.

Holding throughout (type): functional
Assay [1] deals with Mus musculus. Description: Percent decrease in glucose of db/db mouse was measured at 100 mg/kg/day dosage.
In assay [2] the test system is Mus musculus. Description: Percent decrease in glucose of db/db mouse was measured at 20 mg/kg/day dosage.
The test system of assay [3] is Mus musculus. Description: % decrease in insulin of 4 day ob/ob mouse was measured at 50 mg/kg/day dosage.
The test system of assay [4] is Mus musculus. Put plainly: % decrease in glucose of 4 day ob/ob mouse was measured at 50 mg/kg/day dosage.
Assay [5] relates to Mus musculus. Description: % decrease in glucose of 4 day ob/ob mouse was measured at 100 mg/kg/day dosage.
Assay [6] deals with Mus musculus. Put plainly: % decrease in insulin of 4 day ob/ob mouse was measured at 100 mg/kg/day dosage.

In turn, `Cc1ccc(S(=O)(=O)C2(CC#Cc3ccccc3Cl)SC(=O)NC2=O)cc1` (configuration not stated) yielded a Decrease with Mus musculus [1] of 30%. As for `O=C1NC(=O)C(CC#Cc2ccc(C(F)(F)F)cc2)(S(=O)(=O)c2ccc(F)cc2)S1` (configuration not stated), the Decrease was 52% in the assay with Mus musculus [1] and below 15% with Mus musculus [2]. As to `O=C1NC(=O)C(CC#Cc2ccc(F)cc2)(S(=O)(=O)c2ccc(Cl)cc2)S1` (configuration not stated), the Decrease in the assay on Mus musculus [1] is given as 54%; in the assay on Mus musculus [2], below 15%. The corresponding values for `O=C1NC(=O)C(CC#Cc2ccc(Br)cc2)(S(=O)(=O)c2ccccc2)S1` (configuration not stated) are 53% and below 15%. The corresponding values for `Cc1cccc(S(=O)(=O)C2(CC#Cc3ccccc3)SC(=O)NC2=O)c1` (configuration not stated) are 48% and below 15%. In the assay on Mus musculus [1], `Cc1ccc(C#CCC2(S(=O)(=O)c3ccc(C)cc3)SC(=O)NC2=O)cc1` (configuration not stated) had a Decrease of 28%. Take `Cc1ccc(SC2(CC#Cc3ccc(Cl)cc3)SC(=O)NC2=O)cc1` (configuration not stated): in the assay with Mus musculus [1], the Decrease came to 27%. With `O=C1NC(=O)C(CC#Cc2ccc(F)cc2)(S(=O)(=O)c2ccc(F)cc2)S1` (configuration not stated), the results for the Decrease in the assay on Mus musculus [1] and in the assay on Mus musculus [2] were 57% and 25%, respectively. In the case of `O=C1NC(=O)C(CC#Cc2ccc(C(F)(F)F)cc2)(S(=O)(=O)c2ccccc2)S1` (configuration not stated), the Decrease is on record as 59% with Mus musculus [1] and below 15% in the assay on Mus musculus [2]. With `O=C1NC(=O)C(CC#Cc2ccc(Cl)cc2)(S(=O)(=O)c2ccccn2)S1` (configuration not stated), the Decrease in the assay with Mus musculus [1] was 55%; in the assay on Mus musculus [2], 38%. The corresponding values for `O=C1NC(=O)C(CC#Cc2ccc(Br)cc2)(S(=O)(=O)c2ccc(F)cc2)S1` (configuration not stated) are 70% and below 15%. With `O=C1NC(=O)C(CC#Cc2ccc(Cl)cc2)(Sc2ccccc2)S1` (configuration not stated), in the assay with Mus musculus [1], the Decrease is given as below 15%. On the same count and under the same terms, for `O=C1NC(=O)C(CC#Cc2ccc(C(F)(F)F)cc2)(S(=O)(=O)c2ccc(Cl)cc2)S1` (configuration not stated) the value was 37%. With `O=C1NC(=O)C(CC#Cc2cc(C(F)(F)F)cc(C(F)(F)F)c2)(S(=O)(=O)c2ccccn2)S1` (configuration not stated), the Decrease with Mus musculus [2] is on record as below 15%.

In the assay with Mus musculus [1], `COc1ccc(C#CCC2(S(=O)(=O)c3ccccc3)SC(=O)NC2=O)cc1` (configuration not stated) had a Decrease of 25%. The molecule `O=C1NC(=O)C(CC#Cc2cccc(Cl)c2)(S(=O)(=O)c2ccccc2)S1` (configuration not stated) registered a Decrease in the assay on Mus musculus [1] below 15%. As for `Cc1ccc(S(=O)(=O)C2(CC#Cc3ccc(F)cc3)SC(=O)NC2=O)cc1` (configuration not stated), the Decrease with Mus musculus [1] is given as 65%; in the assay with Mus musculus [2], below 15%; with Mus musculus [3] it was 30%; with Mus musculus [4], 30%. `O=C1NC(=O)C(CC#Cc2ccccc2)(S(=O)(=O)c2ccccc2)S1` (configuration not stated): the Decrease with Mus musculus [1] is recorded as below 15%. Molecule `O=C1NC(=O)C(CC#Cc2ccccc2)(S(=O)(=O)c2ccc(Cl)cc2)S1` (configuration not stated) gave a Decrease in the assay with Mus musculus [1] of 36%.

In the case of `O=C1NC(=O)C(CC#Cc2ccc(F)c(F)c2)(S(=O)(=O)c2ccc(F)cc2)S1` (configuration not stated), in the assay with Mus musculus [1], the Decrease was found to be 33%.

For the molecule `Cc1ccc(S(=O)(=O)C2(CC#Cc3ccc(C(F)(F)F)cc3)SC(=O)NC2=O)cc1` (configuration not stated), the results for the Decrease in the assay on Mus musculus [1] and in the assay on Mus musculus [2] were 36% and below 15%, respectively. Consider `O=C1NC(=O)C(CC#Cc2ccc(Cl)cc2)(S(=O)(=O)c2ccc(Br)cc2)S1` (configuration not stated), for which the Decrease is 69% with Mus musculus [1], below 15% in the assay with Mus musculus [2], 69% with Mus musculus [3] and 36% with Mus musculus [4]. Consider `O=C1NC(=O)C(CC#Cc2ccccc2)(S(=O)(=O)c2ccc(F)cc2)S1` (configuration not stated), for which the Decrease in the assay with Mus musculus [1] amounted to 26%. For the molecule `O=C1NC(=O)C(CC#Cc2ccc(Cl)cc2)(S(=O)(=O)c2ccc(F)cc2)S1` (configuration not stated), the Decrease in the assay on Mus musculus [1] is on record as 79%; in the assay with Mus musculus [2] it was 31%.

Molecule `O=C1NC(=O)C(CC#Cc2ccc(Cl)cc2)(S(=O)(=O)c2ccc3ccccc3n2)S1` (configuration not stated) showed a Decrease in the assay on Mus musculus [2] below 15%. In the assay with Mus musculus [1], `COc1ccc(S(=O)(=O)C2(CC#Cc3ccccc3)SC(=O)NC2=O)cc1` (configuration not stated) yielded a Decrease of 21%. On the same count and under the same terms, under `Cc1cccc(S(=O)(=O)C2(CC#Cc3ccc(Cl)cc3)SC(=O)NC2=O)c1` (configuration not stated) stands 33%.

`Cc1ccc(S(=O)(=O)C2(CC#Cc3ccccc3)SC(=O)NC2=O)cc1` (configuration not stated): the figures for the Decrease in the assay with Mus musculus [1] and in the assay on Mus musculus [2] were 43% and 23%, respectively. In the case of `O=C1NC(=O)C(S(=O)(=O)c2ccc3ccccc3c2)S1` (configuration not stated), in the assay with Mus musculus [1], the Decrease is given as 21%. On to `Cc1ccc(S(=O)(=O)C2(CC#Cc3cc(C(F)(F)F)cc(C(F)(F)F)c3)SC(=O)NC2=O)cc1` (configuration not stated), for which the Decrease in the assay with Mus musculus [1] was found to be 22%. For the molecule `O=C1NC(=O)C(CC#Cc2ccc(Cl)cc2)(S(=O)(=O)c2ccc(Cl)cc2)S1` (configuration not stated), the Decrease is 70% with Mus musculus [1], 18% in the assay on Mus musculus [2], 56% in the assay with Mus musculus [3] and 47% in the assay with Mus musculus [4]. `Cc1cccc(S(=O)(=O)C2(CC#Cc3ccc(Cl)cc3)SC(=O)NC2=O)n1` (configuration not stated): the Decrease in the assay on Mus musculus [1] and with Mus musculus [2] was below 15% in each case. For the molecule `O=C1NC(=O)C(CC#Cc2ccc(F)cc2)(S(=O)(=O)c2ccccn2)S1` (configuration not stated), the Decrease in the assay with Mus musculus [1] is 67%; with Mus musculus [2], 36%; with Mus musculus [3], 54%; in the assay on Mus musculus [4], 44%.

For `O=C1NC(=O)C(CC#Cc2ccccc2Cl)(S(=O)(=O)c2ccccc2)S1` (configuration not stated), the Decrease in the assay on Mus musculus [1] was below 15%. Same read-out and setting: for `O=C1NC(=O)C(CC#Cc2ccccc2)(S(=O)(=O)c2ccc3ccccc3c2)S1` (configuration not stated) the value was 24%; for `O=C1NC(=O)C(CC#Cc2ccc(Cl)cc2)(Sc2ccc3ccccc3n2)S1` (configuration not stated), below 15%.

As to `O=C1NC(=O)C(CC#Cc2cc(C(F)(F)F)cc(C(F)(F)F)c2)(S(=O)(=O)c2ccccc2)S1` (configuration not stated), the figures for the Decrease with Mus musculus [1] and in the assay with Mus musculus [2] were 54% and 21%, respectively. The corresponding values for `O=C1NC(=O)C(CC#Cc2ccc(OC(F)(F)F)cc2)(S(=O)(=O)c2ccc(F)cc2)S1` (configuration not stated) are 56% and below 15%. Consider `CSc1ccc(C#CCC2(S(=O)(=O)c3ccc(F)cc3)SC(=O)NC2=O)cc1` (configuration not stated), for which the Decrease in the assay with Mus musculus [1] is below 15%.

Turning to `O=C1NC(=O)C(CC#Cc2ccc(F)cc2)(S(=O)(=O)c2ccccc2)S1` (configuration not stated), the Decrease in the assay with Mus musculus [1] was 58%; in the assay on Mus musculus [2], below 15%. Regarding `O=C1NC(=O)C(CC#Cc2ccc(Cl)cc2)(S(=O)(=O)c2ccc3ccccc3c2)S1` (configuration not stated), the Decrease in the assay on Mus musculus [1] was 20%.

Turning to `O=C1NC(=O)C(CC#Cc2ccc(F)cc2)(S(=O)(=O)c2ccc(Br)cc2)S1` (configuration not stated), the Decrease in the assay with Mus musculus [1] is 64%; in the assay on Mus musculus [2], below 15%. For `COc1ccc(S(=O)(=O)C2(CC#Cc3ccc(Cl)cc3)SC(=O)NC2=O)cc1` (configuration not stated), the values for the Decrease in the assay on Mus musculus [1] and with Mus musculus [2] were 45% and below 15%, respectively.

Take `COc1ccc(C#CCC2(S(=O)(=O)c3ccc(C)cc3)SC(=O)NC2=O)cc1` (configuration not stated): in the assay with Mus musculus [1], the Decrease was below 15%. Consider `O=C1NC(=O)C(CC#Cc2ccc(Cl)cc2)(S(=O)(=O)c2ccccc2)S1` (configuration not stated), for which the Decrease with Mus musculus [5] was 40%; with Mus musculus [1], 52%; in the assay on Mus musculus [2], 21%; in the assay on Mus musculus [6], 65%.

In the case of `Cc1cccc(SC2(CC#Cc3ccc(Cl)cc3)SC(=O)NC2=O)n1` (configuration not stated), in the assay with Mus musculus [1], the Decrease is below 15%. On the same count and under the same terms, for `O=C1NC(=O)C(CC#Cc2ccc(Cl)cc2)(Sc2ccc(Cl)cc2)S1` (configuration not stated) the value was 24%.

Turning to `Cc1ccc(S(=O)(=O)C2(CC#Cc3ccc(Cl)cc3)SC(=O)NC2=O)cc1` (configuration not stated), in the assay with Mus musculus [1], the Decrease amounted to 35%. For `O=C1NC(=O)C(CC#Cc2ccc(Br)cc2)(S(=O)(=O)c2ccc(Cl)cc2)S1` (configuration not stated), the results for the Decrease in the assay with Mus musculus [1] and in the assay on Mus musculus [2] were 68% and below 15%, respectively. The corresponding values for `Cc1ccc(S(=O)(=O)C2(CC#Cc3ccc(Br)cc3)SC(=O)NC2=O)cc1` (configuration not stated) are 51% and 23%.

In the assay with Mus musculus [1], `Cc1ccc(S(=O)(=O)C2(CC#Cc3cccc(Cl)c3)SC(=O)NC2=O)cc1` (configuration not stated) returned a Decrease of 30%. On the same count and under the same terms, under `Cc1ccc(C#CCC2(S(=O)(=O)c3ccccc3)SC(=O)NC2=O)cc1` (configuration not stated) stands below 15%. For the molecule `O=C1NC(=O)C(CC#Cc2ccccc2)(S(=O)(=O)c2ccc(Br)cc2)S1` (configuration not stated), the Decrease in the assay with Mus musculus [1] is 43%; in the assay on Mus musculus [2], below 15%. As to `O=C1NC(=O)C(CC#Cc2ccc(Cl)cc2)(Sc2ccccn2)S1` (configuration not stated), the Decrease in the assay with Mus musculus [1] is listed as below 15%.

The molecule `O=C1NC(=O)C(CC#Cc2ccc(Cl)cc2)(Sc2ccc(F)cc2)S1` (configuration not stated) gave a Decrease in the assay on Mus musculus [1] below 15%.

In the case of `CC1(COc2ccc(CC3SC(=O)NC3=O)cc2)CCCCC1` (configuration not stated) [CIGLITAZONE], the Decrease is 43% with Mus musculus [5], 32% in the assay on Mus musculus [1], below 15% in the assay with Mus musculus [2] and 39% in the assay on Mus musculus [6]. With `Cc1ccc(S(=O)(=O)C(CC#Cc2ccc(Cl)cc2)C(=O)O)cc1` (configuration not stated) [TIBEGLISENE], the values for the Decrease in the assay on Mus musculus [1], with Mus musculus [3] and in the assay with Mus musculus [4] were 30%, 54% and below 15%, respectively.
